Assay [1] deals with Macrophomina phaseolina. The assay can be described thus: In vivo effect on peroxidase activity in Macrophomina phaseoli assessed as RNA content at 0.25 times of IC50 concentration (reference value: 16.1 +/- 0.4 mg/l). It is filed as functional.
In assay [2] the test system is Rhizoctonia solani. Kind of assay: In vivo effect on peroxidase activity in Rhizoctonia solani assessed as total soluble sugar content per gram of dry hyphal at 0.1 times of IC50 concentration (reference value: 20.1 +/- 0.8 mg/g of dry weight). It is filed as functional.
Assay [3] has as its system Macrophomina phaseolina. The assay can be described thus: In vivo effect on peroxidase activity in Macrophomina phaseoli assessed as total soluble sugar content per gram of dry hyphal at 1 times of IC50 concentration (reference value: 19.3 +/- 0.7 mg/g of dry weight). It is filed as functional.
The test system of assay [4] is Macrophomina phaseolina. Kind of assay: In vivo effect on peroxidase activity in Macrophomina phaseoli assessed as DNA content at 1 times of IC50 concentration (reference value: 15.5 +/- 0.5 mg/l). It is filed as functional.
A short description of assay [5]: Inhibition of peroxidase activity in Pythium debaryanum. Details: species or system Globisporangium debaryanum.
In the next assay the target is T1, Peroxidase (Macrophomina phaseolina (strain MS6) (Charcoal rot fungus), UniProt K2RV19).
T1 sequence (K2RV19 whole entry): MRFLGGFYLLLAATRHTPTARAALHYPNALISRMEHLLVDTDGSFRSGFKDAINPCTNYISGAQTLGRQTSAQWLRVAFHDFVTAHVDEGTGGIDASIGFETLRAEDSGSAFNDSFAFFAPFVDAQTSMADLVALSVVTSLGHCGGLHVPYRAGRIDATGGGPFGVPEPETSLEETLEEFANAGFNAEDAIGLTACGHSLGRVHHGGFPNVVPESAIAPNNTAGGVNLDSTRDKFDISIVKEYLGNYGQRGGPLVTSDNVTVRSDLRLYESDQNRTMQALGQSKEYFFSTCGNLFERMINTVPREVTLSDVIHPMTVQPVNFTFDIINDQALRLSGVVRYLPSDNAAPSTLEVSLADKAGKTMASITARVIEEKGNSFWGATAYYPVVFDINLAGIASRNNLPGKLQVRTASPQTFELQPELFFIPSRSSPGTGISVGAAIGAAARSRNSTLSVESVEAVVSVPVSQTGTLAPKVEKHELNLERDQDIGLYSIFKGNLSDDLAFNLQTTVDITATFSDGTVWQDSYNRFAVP
The assay can be described thus: Activation of peroxidase activity in Macrophomina phaseoli.

Assay [6] deals with Globisporangium debaryanum. The assay can be described thus: Inhibition of peroxidase activity in Pythium debaryanum at 2 times of IC50 concentration.
Assay [7] relates to Globisporangium debaryanum. Kind of assay: Inhibition of peroxidase activity in Pythium debaryanum at 1 times of IC50 concentration.
Assay [8] can be described thus: Inhibition of polyphenoloxidase activity in Pythium debaryanum. Also on record: species or system Globisporangium debaryanum.
Assay [9] has as its system Rhizoctonia solani. The assay can be described thus: Inhibition of peroxidase activity in Rhizoctonia solani at 0.1 times of IC50 concentration.
The target of assay [10] is T2, Peroxidase (Macrophomina phaseolina (strain MS6) (Charcoal rot fungus)) (UniProt K2RV19).
T2 sequence (whole entry): T1 sequence (K2RV19 whole entry)
Kind of assay: Inhibition of peroxidase activity in Macrophomina phaseoli at 2 times of IC50 concentration.

Assay [11] concerns the target T2, Peroxidase (Macrophomina phaseolina (strain MS6) (Charcoal rot fungus)). Kind of assay: Inhibition of peroxidase activity in Macrophomina phaseoli at 1 times of IC50 concentration.
Assay [12] shares this target. Kind of assay: Inhibition of peroxidase activity in Macrophomina phaseoli at 0.5 times of IC50 concentration.
Assay [13] in a line: Activation of polyphenoloxidase activity in Pythium debaryanum. Details: species or system Globisporangium debaryanum.
The nature of assay [14]: Inhibition of polyphenoloxidase activity in Rhizoctonia solani.
Assay [15] has as its system Fusarium culmorum. Kind of assay: Inhibition of peroxidase activity in Fusarium culmorum at 2 times of IC50 concentration.
Assay [16] is described as follows: Inhibition of peroxidase activity in Fusarium culmorum.
Assay [17] concerns Fusarium culmorum. The assay can be described thus: Inhibition of peroxidase activity in Fusarium culmorum at 1 times of IC50 concentration.

Values after ≈ are worked out from the molar mass of the structure shown.

For `CC(=O)n1c(-c2ccccc2)cc2ccccc21`, the Activity in the assay with Macrophomina phaseolina [1] turned out to be 10.6 mg/L; in the assay with Rhizoctonia solani [2], 12.2 mg; in the assay with Macrophomina phaseolina [3], 34.7 mg; with Macrophomina phaseolina [4], 8.2 mg/L. Further, the IC50 – broadly, the midpoint of a concentration-inhibition curve – in assay [5] was 96.14 µg/mL (≈ 409 µM); in assay [8], 45.6 µg/mL (≈ 194 µM). For the same molecule, on Peroxidase, the AC50 (commonly the concentration giving half of the maximal activity seen) is below 25.1 µM. For the same molecule, the inhibition (as a rule, the share of the control response that was lost under treatment) is 25.7% in [6] and 19.1% in assay [7].

Consider `c1ccc(-c2cc3ccccc3[nH]2)cc1` [2-PHENYL-1H-INDOLE], for which the Activity in the assay with Macrophomina phaseolina [1] amounted to 7.2 mg/L; in the assay on Rhizoctonia solani [2] it was 58.4 mg; with Macrophomina phaseolina [3], 7.1 mg; in the assay with Macrophomina phaseolina [4], 6.1 mg/L. Further, the inhibition in the assay on Rhizoctonia solani [9] stood at 0%; in assay [10], 54.3%; in [11], 40.7%; in [12] it was 26.7%; in the assay on Fusarium culmorum [15] it was 69.2%; in the assay on Fusarium culmorum [17], 60.1%. Moreover, the AC50 in assay [13] was found to be 35.1 µg/mL (≈ 182 µM). Further, the IC50 stood at 80.3 µg/mL (≈ 416 µM) in assay [14] and 49.9 µg/mL (≈ 258 µM) in assay [16].

Source of the values: ChEMBL document CHEMBL3044888, “Fungicidal activity of indole derivatives against some plant pathogenic fungi” (J Pestic Sci, 2010).
